The values below come from patent US10421740B2, “Pesticidally active heterocyclic derivatives with sulphur containing substituents” (SYNGENTA PARTICIPATIONS AG, priority 2016, dated 2019).

Data set [1] deals with Bemisia tabaci (Cotton White Fly). The data set can be described thus: Activity against Bemisia tabaci (cotton white fly): feeding/contact activity. It is filed as in vivo. Particulars: foliar, 144 h, application rate 200 ppm, cotton leaf discs, adult white flies, 6 days after incubation. As for the experimental part:
Example B1: Activity Against Bemisia tabaci (Cotton White Fly): Feeding/Contact Activity
Cotton leaf discs were placed on agar in 24-well microtiter plates and sprayed with aqueous test solutions prepared from 10'000 ppm DMSO stock solutions. After drying the leaf discs were infested with adult white flies. The samples were checked for mortality 6 days after incubation.

Data set [2] has as its system Diabrotica balteata (Corn Root Worm). The data set can be described thus: Activity against Diabrotica balteata (corn root worm). It counts as in vivo. As to conditions: 96 h, application rate 200 ppm, maize sprouts, L2 larvae, 4 days after infestation, read-out: effect in at least one of the two categories (mortality or growth inhibition). As for the experimental part: Example B2: Activity Against Diabrotica balteata (Corn Root Worm)
Maize sprouts placed onto an agar layer in 24-well microtiter plates were treated with aqueous test solutions prepared from 10'000 ppm DMSO stock solutions by spraying. After drying, the plates were infested with L2 larvae (6 to 10 per well). The samples were assessed for mortality and growth inhibition in comparison to untreated samples 4 days after infestation.

For data set [3], the system named is Myzus persicae (Green Peach Aphid). The data set can be described thus: Activity against Myzus persicae (green peach aphid): feeding/contact activity. It is filed as in vivo. Particulars: foliar, 144 h, application rate 200 ppm, sunflower leaf discs, aphid population of mixed ages, 6 days after infestation. As for the experimental part:
Example B3: Activity Against Myzus persicae (Green Peach Aphid): Feeding/Contact Activity
Sunflower leaf discs were placed onto agar in a 24-well microtiter plate and sprayed with aqueous test solutions prepared from 10'000 ppm DMSO stock solutions. After drying, the leaf discs were infested with an aphid population of mixed ages. The samples were assessed for mortality 6 days after infestation.

Data set [4] has the same test system. The data set can be described thus: Activity against Myzus persicae (green peach aphid): systemic activity. It is filed as in vivo. As to conditions: 144 h, test rate 24 ppm, roots of pea seedlings in test solution, 6 days. As for the experimental part:
Example B4: Activity Against Myzus persicae (Green Peach Aphid): Systemic Activity
Roots of pea seedlings infested with an aphid population of mixed ages were placed directly into aqueous test solutions prepared from 10'000 DMSO stock solutions. The samples were assessed for mortality 6 days after placing seedlings into test solutions.

For data set [5], the system named is Plutella xylostella (Diamond Back Moth). Put plainly: Activity against Plutella xylostella (diamond back moth). It is filed as in vivo. As to conditions: 120 h, application rate 200 ppm, artificial diet, L2 larvae, 5 days after infestation, read-out: effect in at least one of the two categories (mortality or growth inhibition). As for the experimental part: Example B5: Activity Against Plutella xylostella (Diamond Back Moth)
24-well microtiter plates with artificial diet were treated with aqueous test solutions prepared from 10'000 ppm DMSO stock solutions by pipetting. After drying, the plates were infested with L2 larvae (10 to 15 per well). The samples were assessed for mortality and growth inhibition in comparison to untreated samples 5 days after infestation.

Data set [6] concerns Spodoptera littoralis (Egyptian Cotton Leaf Worm). The data set can be described thus: Activity against Spodoptera littoralis (Egyptian cotton leaf worm), uptake via lettuce roots. It is filed as in vivo. Particulars: 144 h, test rate 12.5 ppm, lettuce grown on treated agar, eggs, 6 days after infestation, read-out: effect in at least one of the three categories (mortality, anti-feeding, or growth inhibition). The source says: Example B6: Activity Against Spodoptera littoralis (Egyptian Cotton Leaf Worm)
Test compounds were applied by pipette from 10'000 ppm DMSO stock solutions into 24-well plates and mixed with agar. Lettuce seeds were placed onto the agar and the multi well plate was closed by another plate which contained also agar. After 7 days the compound was absorbed by the roots and the lettuce grew into the lid plate. The lettuce leaves were then cut off into the lid plate. Spodoptera eggs were pipetted through a plastic stencil onto a humid gel blotting paper and the lid plate was closed with it. The samples were assessed for mortality, anti-feedant effect and growth inhibition in comparison to untreated samples 6 days after infestation.

The test system is the same in data set [7]. The data set can be described thus: Activity against Spodoptera littoralis (Egyptian cotton leaf worm), cotton leaf disc spray. It is filed as in vivo. Particulars: foliar, 72 h, application rate 200 ppm, cotton leaf discs, L1 larvae, 3 days after infestation. On the procedure:
Example B8: Activity Against Spodoptera littoralis (Egyptian Cotton Leaf Worm)
Cotton leaf discs were placed onto agar in 24-well microtiter plates and sprayed with aqueous test solutions prepared from 10'000 ppm DMSO stock solutions. After drying the leaf discs were infested with five L1 larvae. The samples were assessed for mortality, anti-feeding effect, and growth inhibition in comparison to untreated samples 3 days after infestation. Control of Spodoptera littoralis by a test sample is given when at least one of the categories mortality, anti-feedant effect, and growth inhibition is higher than the untreated sample.

Data set [8] relates to Anopheles stephensi (Indian Malaria Mosquito). Put plainly: Activity against Anopheles stephensi (Indian malaria mosquito). It counts as in vivo. Particulars: 200 ppm in ethanol, dry deposit; adult females; after 48 h and/or 24 h. As for the experimental part:
Example B10: Activity Against Anopheles stephensi (Indian Malaria Mosquito)
Test solutions, at an application rate of 200 ppm in ethanol, were applied to 12 well tissue culture plates. Once the deposits were dry, five, two to five day old adult female Anopheles stephensi were added to each well, and sustained with a 10% sucrose solution in a cotton wool plug. Assessment of knockdown was made one hour after introduction, and mortality was assessed at 24 and 48 hours after introduction.

The test system of data set [9] is Euschistus heros (Neotropical Brown Stink Bug). Put plainly: Activity against Euschistus heros (neotropical brown stink bug). It is filed as in vivo. As to conditions: 120 h, application rate 200 ppm, soybean leaves, N2 nymphs, 5 days after infestation, read-out: effect in at least one of the two categories (mortality or growth inhibition). As for the experimental part: Example B9: Activity Against Euschistus heros (Neotropical Brown Stink Bug)
Soybean leaves on agar in 24-well microtiter plates were sprayed with aqueous test solutions prepared from 10'000 ppm DMSO stock solutions. After drying the leaves were infested with N2 nymphs. The samples were assessed for mortality and growth inhibition in comparison to untreated samples 5 days after infestation.

As a reminder, the mortality is the share of the test organisms that died. A lower mortality goes with a weak lethal effect. For `CCS(=O)(=O)c1cc2c(cc1-c1nnc(-c3cc(C(F)(F)F)ccn3)n1C)nc(C(F)(F)F)n2C` [Compound A2, 6-ethylsulfonyl-1-methyl-5-[4-methyl-5-[4-(trifluoromethyl)-2-pyridyl]-1,2,4-triazol-3-yl]-2-(trifluoromethyl)benzimidazole], the mortality at 200 ppm in data set [1] and in [3] was at least 80% throughout. Also, the percent effect (mortality or growth inhibition) at 200 ppm in data set [2] is at least 80%. The compound also returned a mortality at 24 ppm in data set [4] of at least 80%. Moreover, the percent control (mortality or growth inhibition) at 200 ppm in data set [5] is at least 80%. Further, the percent with effect (mortality, anti-feeding or growth inhibition) at 12.5 ppm in data set [6] was at least 80%. The compound further returned a percent control (mortality, anti-feedant effect or growth inhibition) at 200 ppm in data set [7] of at least 80%. Further, the “control of Anopheles stephensi” value in [8] is “at least 80%”.
For `CCS(=O)(=O)c1cc2sc(C(F)(F)F)nc2cc1-c1nnc(-c2cc(C(F)(F)F)ccn2)n1C` [Compound A8, 6-ethylsulfonyl-5-[4-methyl-5-[4-(trifluoromethyl)-2-pyridyl]-1,2,4-triazol-3-yl]-2-(trifluoromethyl)-1,3-benzothiazole], the mortality at 200 ppm in data set [1] and in data set [3] was at least 80% throughout. Further, the percent effect (mortality or growth inhibition) at 200 ppm in data set [2] is at least 80%. The percent control (mortality or growth inhibition) at 200 ppm in [5] is at least 80%. Further, the percent with effect (mortality, anti-feeding or growth inhibition) at 12.5 ppm in [6] is at least 80%. Further, in data set [7], the percent control (mortality, anti-feedant effect or growth inhibition) at 200 ppm is at least 80%. For the same compound, in [9], the effect (mortality or growth inhibition) at 200 ppm was at least 80%.
What is called melting point is the temperature, or range, at which the solid turns liquid. As for `CCS(=O)(=O)c1cc2nnn(COC)c2nc1-c1nnc(-c2cc(C(F)(F)F)ccn2)n1C` [Compound A16, 6-ethylsulfonyl-3-(methoxymethyl)-5-[4-methyl-5-[4-(trifluoromethyl)-2-pyridyl]-1,2,4-triazol-3-yl]triazolo[4,5-b]pyridine], the melting point lay within 198 to 200 °C.
